pIC50: −log10 of the molar value. Where a name gives a salt, the structure may show the parent alone. Read-outs that look alike come from different tables or passages of the source.
Assays:
[1] = Dose formulation stability (HPLC/UV); assay type: physicochemical
Protocol: Dose formulation analysis for all good laboratory practice (GLP) general toxicology studies was performed using a validated high-performance liquid chromatography (HPLC)/ultraviolet (UV) analytical method (2750-001-001 Dose Formulation Method 1). The vehicle used in the in vivo toxicology studies was 0.5% HPMC). The analytical method utilized HPLC with monitoring at 227 nm with an isocratic mobile phase of methanol with the column temperature set to 25° C. Linearity over a range of 1.0 to 200 mg/mL was observed. Dose formulations over this range were stable at room temperature for up to 13 days and were stable when stored frozen at −20° C. for up to 85 days.
In addition, formulation analysis for in vitro genetic toxicology studies was performed using a validated HPLC/UV analytical method (2750-001-001 Dose Formulation Method No. 2) with linearity over a range of 0.001 to 50 mg/mL. Dose formulations for in vitro assays were stable at room temperature for up to 1 day and when stored frozen at −20° C. for up to 45 days.

[2] = tested on: uninjured animals; experiment: Normal sensation in uninjured animals; assay type: in vivo
Text: In various embodiments, Compound 1 is efficacious in in vivo animal models of acute post-incisional hyperalgesia, both prophylactically and palliatively. […] In various embodiments, less than about 1%, 0.8%, 0.6%, 0.4%, 0.2%, 0.1%, 0.08%, 0.06%, 0.04%, 0.02%, or 0.01% of Compound 1 in blood plasma penetrates the BBB.

[3] = molecular target: T1, MATE (Homo sapiens, UniProt Q96FL8); experiment: Inhibition of uptake (SLC) transporters; assay type: in vitro ADME; conditions: MATE1; HEK293 cells, probe [14C]-metformin (10 μM), pH 8.5, 0.3-600 μM tested
T1 construct: expressed in transfected cells; host or cells: HEK293 cells

[4] = molecular target: T2, MATE (Homo sapiens, UniProt Q86VL8); experiment: Inhibition of uptake (SLC) transporters; assay type: in vitro ADME; conditions: MATE2-K; HEK293 cells, probe [14C]-metformin (10 μM), pH 8.5, 0.3-600 μM tested
T2 construct: expressed in transfected cells; host or cells: HEK293 cells

[5] = tested on: mouse incisional model; experiment: Mouse incisional model (mimicking the Brennan protocol); assay type: in vivo; conditions: 10 mg/kg IP QD, Days 1 and 3 after incision
Protocol: In a mouse incisional model (mimicking the Brennan protocol), animals were baselined for mechanical thresholds prior to incision and then given a daily dose of Compound 1 (10 mg/kg IP QD) or vehicle for 7 days.

[6] = Solubility in organic/aqueous solvents; assay type: physicochemical
Protocol: Polymorphic screening of crystalline Compound 1 was performed using 15 organic/aqueous solvent systems, including: n-heptane, methanol, toluene, acetone, tetrahydrofuran, iso-propanol, ethanol, ethyl acetate, iso-propyl acetate, tert-butylmethyl ether, […], 10% water/90% tetrahydrofuran, tert-butyl alcohol, water, and 1:1 tert-butyl alcohol:water.

[7] = Dog 28-day repeat dose PO study; assay type: in vivo
Protocol: Beagle dogs (4/sex/group plus 2/sex/group for control and high dose animals for recovery) were administered daily doses of 0, 100, 250 or 400 mg/kg/day of Compound 1 in 0.5% HPMC. […] Dogs in Group 1 (Vehicle Control) were bled once at approximately 2-4 hours post-dose on those days.

[8] = molecular target: T3, P-gp (Homo sapiens, UniProt P08183); experiment: Inhibition of efflux (ABC) transporters; assay type: in vitro ADME
T3 construct: Caco-2 cells; endogenous in cells; host or cells: Caco-2 cells

[9] = molecular target: BCRP (Homo sapiens, UniProt Q9UNQ0); experiment: Inhibition of efflux (ABC) transporters
[10] = tested on: PN-mediated cytotoxicity; experiment: Cell-based assays of PN-mediated cytotoxicity
Text: In cell-based assays of PN-mediated cytotoxicity, Compound 1 is protective. […] Chemically, Compound 1 can also react stoichiometrically with peroxynitrite to form a para-nitro adduct. Without being bound by theory, by targeting and removing peroxynitrite and peroxide, Compound 1 can disrupt the ensuing cascades that lead to hypersensitivity (protein modification, ion channel hyperexcitation) thus providing a long duration event in terms of pain relief.

[11] = tested on: STZ-induced mechanical allodynia; experiment: Streptozotocin (STZ) diabetic neuropathy model; assay type: in vivo, mice; conditions: FIG. 14
Protocol: Streptozotocin (STZ) destroys insulin-producing cells and generates a diabetic phenotype in mice. Animals were dosed with STZ on day −7. By day 0, animals are hyperglycemic and hyperalgesic (day 0 BL).

Sequence of BCRP (Q9UNQ0 whole entry): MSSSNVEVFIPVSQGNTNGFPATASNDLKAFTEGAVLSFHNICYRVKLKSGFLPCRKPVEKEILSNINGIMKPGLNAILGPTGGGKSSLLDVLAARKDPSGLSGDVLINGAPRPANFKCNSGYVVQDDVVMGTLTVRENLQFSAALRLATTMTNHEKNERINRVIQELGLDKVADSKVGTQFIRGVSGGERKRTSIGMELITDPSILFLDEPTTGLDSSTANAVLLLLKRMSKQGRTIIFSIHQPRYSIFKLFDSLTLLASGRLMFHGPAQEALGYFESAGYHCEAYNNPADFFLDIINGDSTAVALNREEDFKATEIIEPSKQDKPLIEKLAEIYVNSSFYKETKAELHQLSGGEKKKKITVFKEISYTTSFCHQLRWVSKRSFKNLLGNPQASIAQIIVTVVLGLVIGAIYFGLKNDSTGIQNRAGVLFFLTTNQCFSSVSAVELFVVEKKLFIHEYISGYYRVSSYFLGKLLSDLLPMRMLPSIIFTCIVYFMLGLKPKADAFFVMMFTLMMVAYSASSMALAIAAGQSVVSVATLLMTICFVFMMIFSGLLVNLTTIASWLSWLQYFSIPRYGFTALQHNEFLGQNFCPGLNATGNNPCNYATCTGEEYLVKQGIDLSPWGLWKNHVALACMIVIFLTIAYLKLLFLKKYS
T3 sequence (P08183 whole entry): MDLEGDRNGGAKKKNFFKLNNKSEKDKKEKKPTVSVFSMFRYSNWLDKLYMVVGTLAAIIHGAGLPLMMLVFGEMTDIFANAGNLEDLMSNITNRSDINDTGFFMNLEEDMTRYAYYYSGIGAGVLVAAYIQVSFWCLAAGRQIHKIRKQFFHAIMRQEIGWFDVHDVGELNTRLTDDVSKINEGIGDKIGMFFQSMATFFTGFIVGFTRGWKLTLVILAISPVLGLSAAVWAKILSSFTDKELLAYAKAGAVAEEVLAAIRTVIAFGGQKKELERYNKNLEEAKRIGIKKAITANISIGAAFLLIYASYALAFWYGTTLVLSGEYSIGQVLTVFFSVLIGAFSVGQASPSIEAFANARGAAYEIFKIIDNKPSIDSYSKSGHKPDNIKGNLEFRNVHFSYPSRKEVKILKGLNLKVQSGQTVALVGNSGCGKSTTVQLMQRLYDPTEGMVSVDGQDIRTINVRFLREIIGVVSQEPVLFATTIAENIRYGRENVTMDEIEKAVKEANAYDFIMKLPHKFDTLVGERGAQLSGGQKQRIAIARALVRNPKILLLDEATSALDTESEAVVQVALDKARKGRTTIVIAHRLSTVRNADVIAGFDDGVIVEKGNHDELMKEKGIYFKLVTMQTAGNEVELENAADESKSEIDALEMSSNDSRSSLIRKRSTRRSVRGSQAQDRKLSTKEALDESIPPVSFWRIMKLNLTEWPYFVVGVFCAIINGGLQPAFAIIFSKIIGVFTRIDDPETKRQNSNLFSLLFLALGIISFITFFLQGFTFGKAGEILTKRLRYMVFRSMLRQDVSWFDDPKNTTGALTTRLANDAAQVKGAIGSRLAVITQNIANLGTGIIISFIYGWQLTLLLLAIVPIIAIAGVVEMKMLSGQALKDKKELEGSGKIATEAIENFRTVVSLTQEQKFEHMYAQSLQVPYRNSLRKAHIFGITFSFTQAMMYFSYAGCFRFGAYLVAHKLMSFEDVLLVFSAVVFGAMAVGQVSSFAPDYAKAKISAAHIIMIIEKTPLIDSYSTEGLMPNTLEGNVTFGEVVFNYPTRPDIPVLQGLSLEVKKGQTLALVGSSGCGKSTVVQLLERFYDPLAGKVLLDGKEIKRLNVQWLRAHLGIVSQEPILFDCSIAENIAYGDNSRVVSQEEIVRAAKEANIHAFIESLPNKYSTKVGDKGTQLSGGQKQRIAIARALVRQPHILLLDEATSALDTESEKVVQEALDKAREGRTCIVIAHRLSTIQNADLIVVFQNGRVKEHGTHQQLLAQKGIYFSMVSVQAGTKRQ
T2 sequence (Q86VL8 1-566 isoform Q86VL8-3): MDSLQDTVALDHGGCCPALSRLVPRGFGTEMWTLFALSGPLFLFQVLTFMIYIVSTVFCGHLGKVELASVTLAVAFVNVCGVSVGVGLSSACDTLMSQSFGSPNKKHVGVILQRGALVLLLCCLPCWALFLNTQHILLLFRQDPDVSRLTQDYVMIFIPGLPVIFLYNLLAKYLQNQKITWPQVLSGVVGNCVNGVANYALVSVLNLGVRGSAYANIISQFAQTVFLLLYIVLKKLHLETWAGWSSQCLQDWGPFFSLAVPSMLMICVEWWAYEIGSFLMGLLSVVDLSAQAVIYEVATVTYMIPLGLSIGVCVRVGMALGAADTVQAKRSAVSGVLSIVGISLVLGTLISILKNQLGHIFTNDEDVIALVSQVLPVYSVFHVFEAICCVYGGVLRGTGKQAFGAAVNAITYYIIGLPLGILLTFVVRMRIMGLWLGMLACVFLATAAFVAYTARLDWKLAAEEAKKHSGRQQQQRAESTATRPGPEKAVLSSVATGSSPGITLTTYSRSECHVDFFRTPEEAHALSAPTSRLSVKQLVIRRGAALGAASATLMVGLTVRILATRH
T1 sequence (Q96FL8 whole entry): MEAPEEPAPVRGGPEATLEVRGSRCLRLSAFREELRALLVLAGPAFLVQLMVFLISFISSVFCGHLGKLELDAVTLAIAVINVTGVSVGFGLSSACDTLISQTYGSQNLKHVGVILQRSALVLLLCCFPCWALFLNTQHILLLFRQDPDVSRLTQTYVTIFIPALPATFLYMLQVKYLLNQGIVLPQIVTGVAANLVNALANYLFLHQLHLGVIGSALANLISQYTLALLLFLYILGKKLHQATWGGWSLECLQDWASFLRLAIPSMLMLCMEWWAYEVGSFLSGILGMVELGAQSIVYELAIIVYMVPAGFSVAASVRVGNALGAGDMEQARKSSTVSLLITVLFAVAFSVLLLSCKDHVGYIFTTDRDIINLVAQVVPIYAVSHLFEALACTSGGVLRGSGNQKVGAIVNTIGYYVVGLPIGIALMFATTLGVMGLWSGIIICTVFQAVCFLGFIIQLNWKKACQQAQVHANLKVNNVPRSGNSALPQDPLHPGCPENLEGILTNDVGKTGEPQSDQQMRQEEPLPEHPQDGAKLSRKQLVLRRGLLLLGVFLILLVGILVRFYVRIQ

For `CC1(C)SC(Nc2ccccc2O)=N[C@@H]1C(=O)O` [Compound 1, (R)-2-(2-hydroxyphenylamino)-5,5-dimethyl-4,5-dihydrothiazole-4-carboxylic acid mono-hydrochloride], the dose formulation stability ([1]; 0.5% HPMC, 1.0 to 200 mg/mL, room temperature) was “up to 13 days”, the dose formulation stability ([1]; 0.5% HPMC, 1.0 to 200 mg/mL, stored frozen at −20° C.) was “up to 85 days” and the dose formulation stability ([1]; formulations for in vitro assays, 0.001 to 50 mg/mL, room temperature) was “up to 1 day”. The dose formulation stability ([1]; formulations for in vitro assays, 0.001 to 50 mg/mL, stored frozen at −20° C.) was “up to 45 days”, the “effect on normal sensation” value [2] was “does not alter normal sensation” and the IC50 [3] was over 600 µM. The IC50 [4] was over 600 µM, the hyperalgesia [5] was “not hyperalgesic” and the solubility ([6]; 10% water/tetrahydrofuran) was “sparingly soluble”. The solubility ([6]; 10% water:iso-propyl acetate) was “sparingly soluble”, the solubility ([6]; acetone) was “less than sparingly soluble” and the solubility ([6]; ethanol) was “sparingly soluble”. For the same molecule, the solubility ([6]; ethyl acetate) was “less than sparingly soluble”, the solubility ([6]; iso-propanol) was “sparingly soluble” and the solubility ([6]; iso-propyl acetate) was “less than sparingly soluble”. The solubility ([6]; methanol) was “freely soluble”, the solubility ([6]; n-heptane) was “less than sparingly soluble” and the solubility ([6]; tert-butyl alcohol) was “less than sparingly soluble”. The solubility ([6]; tert-butyl alcohol:water (1:1)) was “freely soluble”, the solubility ([6]; tert-butyl methyl ether) was “less than sparingly soluble” and the solubility ([6]; tetrahydrofuran) was “less than sparingly soluble”. The solubility ([6]; toluene) was “less than sparingly soluble”, the solubility ([6]; water) was “sparingly soluble” and the Cmax ([7]; 28-day pivotal dog study, at some doses) was “over 100 μg/mL”. The Tmax ([7]; 28-day study, dog) was at most 1 h, the half-life ([7]; both sexes, beagle, dog, in vivo, po, t1/2) was about 3.5 h and the Tmax ([7]; both sexes, beagle, dog, in vivo, po, 100 and 250 mg/kg treatment groups, read-out: median tmax) was 1 h. It also gave a t1/2 ([7]; both, beagle, dog, in vivo, po) of 3.5 h, a Cmax ([7]; female, beagle, dog, in vivo, po, 100 mg/kg, Day 1, 100 mg/kg PO, F, read-out: Cmax) of 69.3 µg/mL and a Cmax ([7]; female, beagle, dog, in vivo, po, 100 mg/kg, Day 15, 100 mg/kg PO, F, read-out: Cmax) of 53 µg/mL. For the same molecule, the Cmax ([7]; female, beagle, dog, in vivo, po, 100 mg/kg, Day 28, 100 mg/kg PO, F, read-out: Cmax) was 60.8 µg/mL, the Cmax ([7]; female, beagle, dog, in vivo, po, 250 mg/kg, Day 1, 250 mg/kg PO, F, read-out: Cmax) was 101 µg/mL and the Cmax ([7]; female, beagle, dog, in vivo, po, 250 mg/kg, Day 15, 250 mg/kg PO, F, read-out: Cmax) was 94.6 µg/mL. It also gave a Cmax ([7]; female, beagle, dog, in vivo, po, 250 mg/kg, Day 28, 250 mg/kg PO, F, read-out: Cmax) of 89.5 µg/mL, a Cmax ([7]; female, beagle, dog, in vivo, po, 400 mg/kg, Day 1, 400 mg/kg PO, F, read-out: Cmax) of 129 µg/mL and a Cmax ([7]; female, beagle, dog, in vivo, po, 400 mg/kg, Day 15, 400 mg/kg PO, F, read-out: Cmax) of 123 µg/mL. The Cmax ([7]; female, beagle, dog, in vivo, po, 400 mg/kg, Day 28, 400 mg/kg PO, F, read-out: Cmax) was 131 µg/mL, the Cmax ([7]; male, beagle, dog, in vivo, po, 100 mg/kg, Day 1, 100 mg/kg PO, M, read-out: Cmax) was 49.9 µg/mL and the Cmax ([7]; male, beagle, dog, in vivo, po, 100 mg/kg, Day 15, 100 mg/kg PO, M, read-out: Cmax) was 50.4 µg/mL. It also gave a Cmax ([7]; male, beagle, dog, in vivo, po, 100 mg/kg, Day 28, 100 mg/kg PO, M, read-out: Cmax) of 45 µg/mL, a Cmax ([7]; male, beagle, dog, in vivo, po, 250 mg/kg, Day 1, 250 mg/kg PO, M, read-out: Cmax) of 104 µg/mL and a Cmax ([7]; male, beagle, dog, in vivo, po, 250 mg/kg, Day 15, 250 mg/kg PO, M, read-out: Cmax) of 88 µg/mL. It also gave a Cmax ([7]; male, beagle, dog, in vivo, po, 250 mg/kg, Day 28, 250 mg/kg PO, M, read-out: Cmax) of 105 µg/mL, a Cmax ([7]; male, beagle, dog, in vivo, po, 400 mg/kg, Day 1, 400 mg/kg PO, M, read-out: Cmax) of 128 µg/mL and a Cmax ([7]; male, beagle, dog, in vivo, po, 400 mg/kg, Day 15, 400 mg/kg PO, M, read-out: Cmax) of 112 µg/mL. For the same molecule, the Cmax ([7]; male, beagle, dog, in vivo, po, 400 mg/kg, Day 28, 400 mg/kg PO, M, read-out: Cmax) was 125 µg/mL, the IC50 ([8]; Caco-2 cells, probe substrate digoxin (10 μM), bidirectional transport, 1-600 μM tested) was over 600 µM and the “transporter inhibition” value ([8]; P-gp) was “does not inhibit”. For the same molecule, the pIC50 [9] was under 4.52, the “transporter inhibition” value ([9]; BCRP) was “modestly inhibits” and the “protection from PN-mediated cytotoxicity” value [10] was “protective”. For the same molecule, the STZ-induced mechanical allodynia [11] was “blocks STZ-induced mechanical allodynia”.

Reference: patent publication US20200246316A1, “METHODS OF TREATING POST-SURGICAL PAIN WITH A THIAZOLINE ANTI-HYPERALGESIC AGENT” (CERSCI THERAPEUTICS, INC., priority 2019, published 2020)
